Consider five molecules from patent publication US20200407398A1, “Short Proline-Rich Lipopeptide Potentiates Minocycline and Rifampicin Against Multidrug-and Extensively Drug-Resistant Pseudomonas Aeruginosa” (priority 2018, published 2020).

Holding throughout (format): cell-based
The test system of data set [1] is S. maltophilia CAN-ICU 62584. The procedure:
(§1) The synthesized SPRLPs were evaluated for their antibacterial potency against a panel of Gram-positive and Gram-negative bacteria (Tables 2 & 3). Some of the included pathogens were collected from patients visiting or admitted to participating Canadian hospitals through the CAN-ICU (27) and CANWARD (28) national surveillance studies. Antibacterial activity was assessed using minimum inhibitory concentration (MIC) against various clinical pathogens.
(§2) Isolates used in this study were either obtained from the American Type Culture Collection (ATCC), the Canadian National Intensive Care Unit (CAN-ICU) surveillance study (27) or the Canadian Ward Surveillance (CANWARD) study (28). Clinical isolates belonging to the CAN-ICU and CANWARD studies were recovered from patients suffering a presumed infectious disease entering or admitted in a participating medical center across Canada during the time of study. MDR P. aeruginosa strains in this study refer to those that are resistant to aminoglycosides, fluoroquinolones, cephalosporins, and carbapenems while XDR strains are those that are resistant to aminoglycosides, fluoroquinolones, cephalosporins, carbapenems, aztreonam and penicillin+β-lactamase inhibitor combination (39, 40).
(§3) Microbroth dilution susceptibility test following the Clinical and Laboratory Standards Institute (CLSI) guidelines (32) was performed to assess the in vitro antibacterial activity of SPRLPs. Overnight grown bacterial cultures were diluted in saline to achieve a 0.5 McFarland turbidity, followed by 1:50 dilution in Mueller-Hinton broth (MHB) for inoculation to a final concentration of 5×10^5 colony forming units/mL. The assay was done on a 96-well plate to which the agents of interest were 2-fold serially diluted in MHB and incubated with equal volumes of inoculum at 37° C. for 18 hours. MIC was determined as the lowest concentration to inhibit visible bacterial growth in form of turbidity, which was confirmed using EMax Plus microplate reader (Molecular Devices, USA) at a wavelength of 590 nm. The well containing MHB broth with or without bacterial cells was used as positive or negative control, respectively.

The subject of data set [2] is methicillin-resistant S. epidermidis CAN-ICU 61589 (ceftazidime-resistant). Conditions: methicillin-resistant CAN-ICU 61589 (ceftazidime-resistant). The procedure:
as §1, §2, §3

For data set [3], the system named is P. aeruginosa ATCC 27853. The procedure: as §1, §2, §3
Data set [4] concerns A. baumannii CAN-ICU 63169. The procedure: as §1, §2, §3
Data set [5] relates to P. aeruginosa CANWARD-2011 96846 (gentamicin-, tobramycin-resistant). The method, then: as §1, §2, §3
Data set [6] deals with E. coli ATCC 25922. The procedure: as §1, §2, §3
Data set [7] concerns methicillin-resistant S. aureus ATCC 33592. The method, then:
as §1, §2, §3

The subject of data set [8] is E. coli CAN-ICU 63074 (amikacin-intermediate resistant). The method, then: as §1, §2, §3
Data set [9] deals with methicillin-susceptible Staphylococcus epidermidis CANWARD-2008 81388. The conditions noted are these: methicillin-susceptible CANWARD-2008 81388. The method, then: as §1, §2, §3
The subject of data set [10] is K. pneumoniae ATCC 13883. The method, then:
as §1, §2, §3

In data set [11] the test system is E. faecalis ATCC 29212. The procedure:
as §1, §2, §3

Data set [12] concerns P. aeruginosa wild-type PAO1. The method, then: as §1, §2, §3
For data set [13], the system named is E. faecium ATCC 27270. The procedure: as §1, §2, §3
For data set [14], the system named is E. coli CANWARD-2011 97615 (gentamicin-, tobramycin-, ciprofloxacin-resistant) aac(3′)iia. The method, then: as §1, §2, §3
Data set [15] concerns E. coli CAN-ICU 61714 (gentamicin-resistant). The procedure: as §1, §2, §3
The test system of data set [16] is S. aureus ATCC 29213. The method, then:
as §1, §2, §3

Data set [17] relates to P. aeruginosa CAN-ICU 62308 (gentamicin-resistant). The procedure: as §1, §2, §3
In data set [18] the test system is pig erythrocytes. The conditions noted are these: red cells of porcine. The procedure:
Since PRAMPs are able to kill bacteria through membrane lysis, it is imperative to evaluate whether these synthesized SPRLPs also lyse eukaryotic membranes. The ability to lyse porcine red blood cells was assessed and the minimum concentration to result in 5% erythrocyte hemolysis (MHC) was reported (Tables 2 & 3). […] This greatly limits their therapeutic potential. […] However, all other SPRLPs were non-hemolytic (MHC>512 μg/mL).
The ability of SPRLPs to lyse eukaryotic red blood cells were quantified by the amount of hemoglobin released upon incubation with pig erythrocytes, following published protocols (37, 39). Fresh pig blood drawn from pig antecubital vein was centrifuged at 1000×g for 5 minutes at 4° C., washed with PBS three times and re-suspended in the same buffer, consecutively. Then, agents of interest were 2-fold serially diluted in PBS on 96-well plate and mixed with equal volumes of erythrocyte solution. Post 1-hour incubation at 37° C., intact cells were pelleted by centrifugation at 1000×g for 5 minutes at 4° C. The supernatant was then transferred to a new 96-well plate. The hemoglobin released was measured via EMax Plus microplate reader (Molecular Devices, USA) at 570 nm wavelength. Erythrocytes in PBS with or without 0.1% Triton X-100 was used as negative or positive control, respectively.

Peptide text beside a SMILES is read from it. * marks the point of attachment. Acetyl(1-adamantyl) = O=C(CC12CC3CC(CC(C3)C1)C2)*; Lauroyl = CCCCCCCCCCCC(=O)*; Octanoyl = CCCCCCCC(=O)* A value given as a limit tells only on which side of the number the result lay.

Consider `CCCCCCCCCCCC(=O)N1CCC[C@H]1C(=O)N[C@@H](CCCNC(=N)N)C(=O)N1CCC[C@H]1C(=O)N[C@@H](CC(C)C)C(=O)N1CCC[C@H]1C(=O)N[C@@H](CCCNC(=N)N)C(=O)N1CCC[C@H]1C(N)=O` [Compound C12-PLP, CH3(CH2)10CO-PRPLPRP-NH2] (Lauroyl-PRPLPRP-NH2), for which the minimum inhibitory concentration (MIC) in data set [1] is greater than 128 µg/mL; in data set [2], 64 µg/mL; in [3] it was greater than 128 µg/mL; in data set [4], greater than 128 µg/mL; in data set [5] it was greater than 128 µg/mL; in data set [6], greater than 128 µg/mL. Besides, the MIC in [7] was 128 µg/mL; in data set [8], greater than 128 µg/mL; in data set [9] it was 64 µg/mL; in data set [10], greater than 128 µg/mL; in [11], 128 µg/mL; in [12] it was 512 µg/mL. Further, the MIC in data set [13] was 128 µg/mL; in [14] it was greater than 128 µg/mL; in [15], greater than 128 µg/mL; in data set [16], 128 µg/mL; in [17], greater than 128 µg/mL. Moreover, in [18], the “MHC (minimum concentration that resulted in 5% red blood cell hemolysis)” value was greater than 512 µg/mL.

With `N=C(N)NCCC[C@H](NC(=O)[C@@H]1CCCN1C(=O)CNC(=O)[C@@H]1CCCN1C(=O)[C@H](CCCNC(=N)N)NC(=O)[C@@H]1CCCN1C(=O)CC12CC3CC(CC(C3)C1)C2)C(=O)N1CCC[C@H]1C(N)=O` [Ad-PGP, Adamantyl-CH2CO-PRPGPRP-NH2] ({Acetyl(1-adamantyl)}-PRPGPRP-NH2), the MIC in data set [1], in data set [2], in [3], in data set [4], in data set [5] and in data set [6] was greater than 128 µg/mL in each case. Moreover, the MIC in data set [7] is greater than 128 µg/mL; in data set [8], greater than 128 µg/mL; in data set [9], greater than 128 µg/mL; in data set [10] it was greater than 128 µg/mL; in data set [11] it was greater than 128 µg/mL; in data set [12], greater than 512 µg/mL. Also, the MIC in data set [13], in data set [14], in [15], in data set [16] and in [17] was greater than 128 µg/mL throughout. Also, the “MHC (minimum concentration that resulted in 5% red blood cell hemolysis)” value in [18] is greater than 512 µg/mL.

On to `CCCCCCCCCCCC(=O)N1CCC[C@H]1C(=O)N[C@@H](CCCNC(=N)N)C(=O)N1CCC[C@H]1C(=O)NCC(=O)N1CCC[C@H]1C(=O)N[C@@H](CCCNC(=N)N)C(=O)N1CCC[C@H]1C(N)=O` [Compound C12-PGP, CH3(CH2)10CO-PRPGPRP-NH2] (Lauroyl-PRPGPRP-NH2), for which the minimum inhibitory concentration (MIC) in data set [1], in [2], in data set [3], in [4], in [5] and in data set [6] was greater than 128 µg/mL in each case. In addition, the MIC in data set [7] is greater than 128 µg/mL; in [8], greater than 128 µg/mL; in data set [9] it was 128 µg/mL; in data set [10], greater than 128 µg/mL; in data set [11] it was greater than 128 µg/mL; in data set [12] it was greater than 512 µg/mL. Further, the MIC in data set [13], in data set [14], in [15], in data set [16] and in data set [17] was greater than 128 µg/mL in each case. The “MHC (minimum concentration that resulted in 5% red blood cell hemolysis)” value in data set [18] was greater than 512 µg/mL.

Regarding `CCCCCCCC(=O)N1CCC[C@H]1C(=O)N[C@@H](CCCNC(=N)N)C(=O)N1CCC[C@H]1C(=O)N[C@@H](CC(C)C)C(=O)N1CCC[C@H]1C(=O)N[C@@H](CCCNC(=N)N)C(=O)N1CCC[C@H]1C(N)=O` [Compound C8-PLP, CH3(CH2)6CO-PRPLPRP-NH2] (Octanoyl-PRPLPRP-NH2), the MIC in [1], in data set [2], in data set [3], in [4], in data set [5] and in data set [6] was greater than 128 µg/mL in each case. In addition, the minimum inhibitory concentration (MIC) in data set [7] was greater than 128 µg/mL; in data set [8] it was greater than 128 µg/mL; in data set [9] it was greater than 128 µg/mL; in [10] it was greater than 128 µg/mL; in data set [11], greater than 128 µg/mL; in [12] it was greater than 512 µg/mL. Also, the minimum inhibitory concentration (MIC) in data set [13], in [14], in [15], in [16] and in data set [17] was greater than 128 µg/mL each time. Further, the “MHC (minimum concentration that resulted in 5% red blood cell hemolysis)” value in data set [18] is greater than 512 µg/mL.

Consider `CCCCCCCC(=O)N1CCC[C@H]1C(=O)N[C@@H](CCCNC(=N)N)C(=O)N1CCC[C@H]1C(=O)NCC(=O)N1CCC[C@H]1C(=O)N[C@@H](CCCNC(=N)N)C(=O)N1CCC[C@H]1C(N)=O` [Compound C8-PGP, CH3(CH2)6CO-PRPGPRP-NH2] (Octanoyl-PRPGPRP-NH2), for which the MIC in [1], in data set [2], in data set [3], in data set [4], in [5] and in data set [6] was greater than 128 µg/mL each time. Besides, the MIC is greater than 128 µg/mL in [7]; greater than 128 µg/mL in [8]; greater than 128 µg/mL in data set [9]; greater than 128 µg/mL in data set [10]; greater than 128 µg/mL in data set [11]; greater than 512 µg/mL in [12]. For the same molecule, the MIC in data set [13], in [14], in data set [15], in data set [16] and in data set [17] was greater than 128 µg/mL each time. The “MHC (minimum concentration that resulted in 5% red blood cell hemolysis)” value in data set [18] is greater than 512 µg/mL.

In general, MIC refers to the lowest concentration that inhibits growth of the organism.
